Values quoted from earlier work as cited in patent US20220288059A1, “NANOENCAPSULATED CANNABIDIOL” (Aphios Corporation, priority 2020, published 2022).

Tests used:
rhesus monkeys = conditions: intravenously
mice [1] = tested on: mice
mice [2] = conditions: intravenously
rats = conditions: i.v.
dogs = conditions: intravenously

C=C(C)[C@@H]1CCC(C)=C[C@H]1c1c(O)cc(CCCCC)cc1O [CBD, cannabidiol]
LD50 in rhesus monkeys (rhesus monkeys): 212 mg/kg
inhibition of cue-induced heroin-seeking behaviors (mice [1]): effectively inhibit cue-induced heroin-seeking behaviors
anti-nociceptive effect, tail-flick test (Wistar rats): dose-dependent anti-nociceptive effects
LD50 in mice (mice [2]): 50 mg/kg
toxicity relative to Δ9-THC by LD50 (rats): less toxic than Δ9-THC
LD50 in dogs (dogs): 254 mg/kg
